Measured values taken from patent publication US12509466B2, “Methods and compounds for treating paramyxoviridae virus infections” (Gilead Sciences, Inc., priority 2010, dated 2025).
pEC50, pIC50: −log10 of the molar value. Like-named read-outs stand apart in the source and are kept apart here.

Key:
[1] = target: T1, RSV ribonucleoprotein (RNP) complexes (Human respiratory syncytial virus A, UniProt P28887); test: RSV RNP transcription assay; type: biochemical, RSV A2; conditions: reduction of total radiolabled transcripts by 50%, 90 minute incubation at 30° C.
T1 construct: The supernatant (S3) fraction, containing the enriched RSV RNP complexes, was collected; endogenous in cells; host or cells: HEp-2 cells infected with RSV A2; crude detergent-extracted S3 fraction
Method: HEp-2 cells were plated at a density of 7.1×10^4 cells/cm^2 in MEM+10% fetal bovine serum (FBS) and allowed to attach overnight at 37° C. (5% CO2). Following attachment, the cells were infected with RSV A2 (MOI=5) in 35 mL MEM+2% FBS. At 20 hours post-infection, the media was replaced with MEM+2% FBS supplemented with 2 μg/mL actinomycin D and returned to 37° C. for one hour. The cells were then washed once with PBS and treated with 35 mL of PBS+250 μg/mL lyso-lecithin for one minute, after which all liquid was aspirated. The cells were harvested by scrapping them into 1.2 mL of buffer A [50 mM TRIS acetate (pH 8.0), 100 mM potassium acetate, 1 mM DTT and 2 μg/mL actinomycin D] and lysed by repeated passage through an 18 gauge needle (10 times). The cell lysate was placed in ice for 10 minutes and then centrifuged at 2400 g for 10 minutes at 4° C. The supernatant (S1) was removed and the pellet (P1) was disrupted in 600 uL of Buffer B [10 mM TRIS acetate (pH 8.0), 10 mM potassium acetate and 1.5 mM MgCl2] supplemented with 1% Triton X-100 by repeated passage through an 18 gauge needle (10 times). The resuspended pellet was placed in ice for 10 minutes and then centrifuged at 2400 g for 10 minutes at 4° C. The supernatant (S2) was removed and the pellet (P2) was disrupted in 600 uL of Buffer B supplemented with 0.5% deoxycholate and 0.1% Tween 40. The resuspended pellet was placed in ice for 10 minutes and then centrifuged at 2400 g for 10 minutes at 4° C. The supernatant (S3) fraction, containing the enriched RSV RNP complexes, was collected and the protein concentration determined by UV absorbance at 280 nm. Aliquoted RSV RNP S3 fractions were stored at −80° C.
Transcription reactions contained 25 μg of crude RSV RNP complexes in 30 μL of reaction buffer [50 mM TRIS-acetate (pH 8.0), 120 mM potassium acetate, 5% glycerol, 4.5 mM MgCl2, 3 mM DTT, 2 mM ethyleneglycol-bis(2-aminoethylether)-tetraacetic acid (EGTA), 50 μg/mL BSA, 2.5 U RNasin (Promega), ATP, GTP, UTP, CTP and 1.5 uCi [α-^32P] NTP (3000 Ci/mmol)]. The radiolabled nucleotide used in the transcription assay was selected to match the nucleotide analog being evaluated for inhibition of RSV RNP transcription. […] The three remaining nucleotides were added at a final concentration of 100 μM.
To determine whether nucleotide analogs inhibited RSV RNP transcription, compounds were added using a 6 step serial dilution in 5-fold increments. Following a 90 minute incubation at 30° C., the RNP reactions were stopped with 350 μL of Qiagen RLT lysis buffer and the RNA was purified using a Qiagen RNeasy 96 kit. Purified RNA was denatured in RNA sample loading buffer (Sigma) at 65° C. for 10 minutes and run on a 1.2% agarose/MOPS gel containing 2M formaldehyde. […]

[2] = test system: RSV strain A2; test: Anti-RSV cytoprotection assay in Hep2 cells; type: cell-based; conditions: human respiratory syncytial virus, HEp-2, 96 h
Method: Antiviral activity against RSV is determined using an in vitro cytoprotection assay in Hep2 cells. […] The method used is similar to methods previously described in published literature (Chapman et al., Antimicrob Agents Chemother. 2007, 51(9):3346-53.)
Hep2 cells are obtained from ATCC (Manassas, VI) and maintained in MEM media supplemented with 10% fetal bovine serum and penicillin/streptomycin. Cells are passaged twice a week and kept at subconfluent stage. Commercial stock of RSV strain A2 (Advanced Biotechnologies, Columbia, MD) is titered before compound testing to determine the appropriate dilution of the virus stock that generates desirable cytopathic effect in Hep2 cells.
For antiviral tests, Hep2 cells are seeded into 96-well plates 24 hours before the assay at a density of 3,000 cells/well. On a separate 96 well plate, compounds to be tested are serially diluted in cell culture media. Eight concentrations in 3-fold serial dilution increments are prepared for each tested compound and 100 uL/well of each dilution is transferred in duplicate onto plates with seeded Hep2 cells. Subsequently, appropriate dilution of virus stock previously determined by titration is prepared in cell culture media and 100 uL/well is added to test plates containing cells and serially diluted compounds. Each plate includes three wells of infected untreated cells and three wells of uninfected cells that served as 0% and 100% virus inhibition control, respectively. Following the infection with RSV, testing plates are incubated for 4 days in a tissue culture incubator. After the incubation, RSV-induced cytopathic effect is determined using a Cell TiterGlo reagent (Promega, Madison, WI) followed by a luminescence read-out. The percentage inhibition is calculated for each tested concentration relative to the 0% and 100% inhibition controls and the EC50 value for each compound is determined by non-linear regression as a concentration inhibiting the RSV-induced cytopathic effect by 50%. Ribavirin (purchased from Sigma, St. Louis, MO) is used as a positive control for antiviral activity.

[3] = Cytotoxicity in uninfected Hep2 cells; type: cell-based; conditions: human, CellTiter Glo
Method: Cytotoxicity of tested compounds is determined in uninfected Hep2 cells in parallel with the antiviral activity using the cell viability reagent in a similar fashion as described before for other cell types (Cihlar et al., Antimicrob Agents Chemother. 2008, 52(2):655-65.). The same protocol as for the determination of antiviral activity is used for the measurement of compound cytotoxicity except that the cells are not infected with RSV. Instead, fresh cell culture media (100 uL/well) without the virus is added to tested plates with cells and prediluted compounds. Cells are then incubated for 4 days followed by a cell viability test using CellTiter Glo reagent and a luminescence read-out. Untreated cell and cells treated with 50 ug/mL puromycin (Sigma, St. Louis, MO) are used as 100% and 0% cell viability control, respectively. The percent of cell viability is calculated for each tested compound concentration relative to the 0% and 100% controls and the CC50 value is determined by non-linear regression as a compound concentration reducing the cell viability by 50%.

[4] = test system: Parainfluenza 3 strain C 243; test: Parainfluenza cytoprotection assay in Vero cells; type: cell-based; conditions: 168 h, Parainfluenza 3 strain C 243, 7 days, MTS
Method: (§1) The Parainfluenza Cytoprotection assay uses Vero cells and Parainfluenza 3 strain C 243. Briefly virus and cells are mixed in the presence of test compound and incubated for 7 days. […] Therefore, antiviral effect or cytoprotection is observed when compounds prevent virus replication. Each assay plate contains cell control wells (cells only), virus control wells (cells plus virus), compound toxicity control wells (cells plus compound only), compound colorimetric control wells (compound only), as well as experimental wells (compound plus cells plus virus). Cytoprotection and compound cytotoxicity are assessed by MTS (CellTiter®96 Reagent, Promega, Madison WI) dye reduction. […]
The virus used for this assay is Parainfluenza 3 strain C 243. […] The virus is resuspended and diluted into tissue culture medium such that the amount of virus added to each well is the amount determined to give between 85 to 95% cell killing at 6-7 days post-infection.
(§2) At assay termination (7 days post-infection), the assay plates are stained with the soluble tetrazolium-based dye MTS (3-(4,5-dimethylthiazol-2-yl)-5-(3-carboxymethoxyphenyl)-2-(4-sulfophenyl)-2H-tetrazolium; CellTiter®96 Reagent, Promega) to determine cell viability and quantify compound toxicity. […]

[5] = Compound cytotoxicity in Vero cells (MTS); type: cell-based; conditions: African green monkey (Cercopithecus aethiops), concentration resulting in 50% cell death, read-out: TC50
Method: as §1
as §2, with “toxicity. MTS is metabolized by the mitochondrial enzymes of metabolically active cells to yield a soluble formazan product, allowing the rapid quantitative analysis of cell viability and compound cytotoxicity.” for “toxicity.”

[6] = RSV-induced cytopathic effect, Hep2 cells, RSV strain A2, 4 days, Cell TiterGlo, read-out: EC50

T1 sequence (P28887 whole entry, looked up, one chain of several): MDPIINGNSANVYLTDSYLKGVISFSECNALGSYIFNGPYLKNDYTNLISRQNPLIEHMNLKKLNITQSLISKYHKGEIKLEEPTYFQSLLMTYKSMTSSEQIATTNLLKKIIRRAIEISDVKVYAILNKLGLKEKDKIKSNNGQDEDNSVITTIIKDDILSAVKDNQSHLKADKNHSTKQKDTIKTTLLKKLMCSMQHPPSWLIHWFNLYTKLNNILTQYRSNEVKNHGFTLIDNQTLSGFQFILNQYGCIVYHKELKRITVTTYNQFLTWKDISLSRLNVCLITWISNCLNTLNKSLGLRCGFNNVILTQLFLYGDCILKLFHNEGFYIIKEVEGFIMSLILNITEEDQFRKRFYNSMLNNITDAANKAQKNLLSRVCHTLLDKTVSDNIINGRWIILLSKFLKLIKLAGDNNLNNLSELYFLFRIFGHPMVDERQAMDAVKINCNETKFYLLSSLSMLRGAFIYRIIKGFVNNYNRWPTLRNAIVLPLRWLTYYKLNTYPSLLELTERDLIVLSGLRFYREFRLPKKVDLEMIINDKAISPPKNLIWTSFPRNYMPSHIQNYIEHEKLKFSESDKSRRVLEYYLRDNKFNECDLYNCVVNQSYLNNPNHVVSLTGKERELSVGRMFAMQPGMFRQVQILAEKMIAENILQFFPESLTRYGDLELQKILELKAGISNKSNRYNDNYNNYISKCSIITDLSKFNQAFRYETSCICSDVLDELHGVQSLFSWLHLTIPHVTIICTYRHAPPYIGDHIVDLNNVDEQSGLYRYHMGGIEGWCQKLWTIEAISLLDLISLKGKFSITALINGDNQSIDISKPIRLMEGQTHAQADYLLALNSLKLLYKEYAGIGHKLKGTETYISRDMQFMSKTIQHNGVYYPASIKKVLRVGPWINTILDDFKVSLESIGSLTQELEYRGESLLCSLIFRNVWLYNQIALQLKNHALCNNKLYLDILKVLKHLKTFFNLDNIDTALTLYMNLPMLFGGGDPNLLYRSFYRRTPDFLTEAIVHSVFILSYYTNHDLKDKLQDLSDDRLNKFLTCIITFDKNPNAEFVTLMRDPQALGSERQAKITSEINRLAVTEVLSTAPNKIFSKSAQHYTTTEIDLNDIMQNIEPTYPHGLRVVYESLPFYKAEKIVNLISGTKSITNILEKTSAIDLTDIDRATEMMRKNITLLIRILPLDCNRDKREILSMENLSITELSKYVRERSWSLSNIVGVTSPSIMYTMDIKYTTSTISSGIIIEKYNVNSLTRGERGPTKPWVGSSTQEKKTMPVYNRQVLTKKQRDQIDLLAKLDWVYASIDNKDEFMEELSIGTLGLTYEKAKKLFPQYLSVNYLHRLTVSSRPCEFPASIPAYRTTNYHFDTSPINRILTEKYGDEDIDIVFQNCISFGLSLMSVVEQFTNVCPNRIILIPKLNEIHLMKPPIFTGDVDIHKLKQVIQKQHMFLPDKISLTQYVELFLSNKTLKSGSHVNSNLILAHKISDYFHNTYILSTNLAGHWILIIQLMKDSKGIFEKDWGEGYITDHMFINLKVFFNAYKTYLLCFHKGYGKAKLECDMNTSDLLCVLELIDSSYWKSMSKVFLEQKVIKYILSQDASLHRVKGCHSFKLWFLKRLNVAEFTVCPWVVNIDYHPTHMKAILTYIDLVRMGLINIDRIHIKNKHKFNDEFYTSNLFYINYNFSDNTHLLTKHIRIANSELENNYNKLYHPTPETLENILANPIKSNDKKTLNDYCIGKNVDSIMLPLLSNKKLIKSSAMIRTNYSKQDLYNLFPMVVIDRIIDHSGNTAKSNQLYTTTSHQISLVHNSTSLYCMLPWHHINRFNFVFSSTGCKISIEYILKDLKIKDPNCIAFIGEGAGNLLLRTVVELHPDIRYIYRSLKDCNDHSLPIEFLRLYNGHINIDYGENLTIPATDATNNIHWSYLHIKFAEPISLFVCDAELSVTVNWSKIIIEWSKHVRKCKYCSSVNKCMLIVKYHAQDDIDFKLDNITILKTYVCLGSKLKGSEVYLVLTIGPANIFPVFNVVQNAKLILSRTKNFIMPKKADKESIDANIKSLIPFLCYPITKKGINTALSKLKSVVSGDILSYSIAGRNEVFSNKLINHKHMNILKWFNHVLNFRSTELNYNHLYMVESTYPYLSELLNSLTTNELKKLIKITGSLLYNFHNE

| Compound | pIC50 [1] | CC50 at 4 days [3] [µM] | pEC50 [2, 6] | further results |
| --- | --- | --- | --- | --- |
| C[C@@]1(c2ccc3c(N)ncnn23)O[C@H](COP(=O)(O)OP(=O)(O)OP(=O)(O)O)[C@@H](O)[C@H]1O [Compound 19, ((2R, 3S, 4R, 5S)-5-(4-aminopyrrolo[1,2-f][1,2,4]triazin-7-yl)-3,4-dihydroxymethyltetrahydrofuran-2-yl)methyl Tetrahydrogen Triphosphate] | 5.82 |  |  |  |
| N#C[C@@]1(c2ccc3c(N)ncnn23)O[C@H](COP(=O)(O)OP(=O)(O)OP(=O)(O)O)[C@@H](O)[C@H]1F [Compound 20, ((2R,3R,4R,5R)-5-(4-aminopyrrolo[1,2-f][1,2,4]triazin-7-yl)-5-cyano-4-fluoro-3-hydroxytetrahydrofuran-2-yl)methyl Tetrahydrogen Triphosphate] | 6.10 |  |  |  |
| C[C@@]1(c2ccc3c(N)ncnn23)O[C@H](COP(=O)(O)OP(=O)(O)OP(=O)(O)O)[C@@H](O)[C@H]1F [Compound 6, ((2R, 3R, 4R, 5S)-5-(4-aminopyrrolo[1,2-f][1,2,4]triazin-7-yl)-4-fluoro-3-hydroxy-5-methyltetrahydrofuran-2-yl)methyl Tetrahydrogen Triphosphate] | 5.44 |  |  |  |
| C#C[C@@]1(c2ccc3c(N)ncnn23)O[C@H](COP(=O)(OCCSC(=O)C(C)(C)C)OCCSC(=O)C(C)(C)C)[C@@H](O)[C@H]1O [Compound 16, S,S′-2,2′-((((2R, 3S, 4R, 5S)-5-(4-aminopyrrolo[1,2-f][1,2,4]triazin-7-yl)-5-ethynyl-3,4-dihydroxytetrahydrofuran-2-yl)methoxy)phosphoryl)bis(oxy)bis(ethane-2,1-diyl) bis(2,2-dimethylpropanethioate)] |  | > 100 |  | pEC50 [2]: 5.48 |
| CC(C)(C)C(=O)SCCOP(=O)(OCCSC(=O)C(C)(C)C)OC[C@H]1O[C@@](C#N)(c2ccc3c(N)ncnn23)[C@H](O)[C@@H]1O [Compound 15, S,S′-2,2′-((((2R,3S,4R,5R)-5-(4-aminopyrrolo[1,2-f][1,2,4]triazin-7-yl)-5-cyano-3,4-dihydroxytetrahydrofuran-2-yl)methoxy)phosphoryl)bis(oxy)bis(ethane-2,1-diyl) bis(2,2-dimethylpropanethioate)] |  | > 100 | 6.82 |  |
| C[C@@]1(c2ccc3c(N)ncnn23)O[C@H](CO)[C@@H](O)[C@H]1O [Compound 14] |  | 92 | 5.57 | pIC50 [4]: 5.28; CC50 at 7 days [5]: > 30 µM |
| C#C[C@@]1(c2ccc3c(N)ncnn23)O[C@H](COP(=O)(O)OP(=O)(O)OP(=O)(O)O)[C@@H](O)[C@H]1O [Compound 18, ((2R, 3S, 4R, 5S)-5-(4-aminopyrrolo[1,2-f][1,2,4]triazin-7-yl)-5-ethynyl-3,4-dihydroxytetrahydrofuran-2-yl)methyl tetrahydrogen triphosphate] | 5.80 |  |  |  |
| C#C[C@@]1(c2ccc3c(N)ncnn23)O[C@H](CO)[C@@H](O)[C@H]1O [Compound 13, (2S,3R,4S,5R)-2-(4-aminopyrrolo[1,2-f][1,2,4]triazin-7-yl)-2-ethynyl (hydroxymethyl)tetrahydrofuran-3,4-diol] |  | > 100 | 4.47 |  |
| CCOC(=O)[C@H](C)NP(=O)(OC[C@H]1O[C@@](C#N)(c2ccc3c(N)ncnn23)[C@H](O)[C@@H]1O)Oc1ccccc1 (stereo partly drawn) [Compound 10, (2S)-ethyl 2-((((2R,3S,4R,5R)-5-(4-aminopyrrolo[1,2-f][1,2,4]triazin-7-yl)cyano-3,4-dihydroxytetrahydrofuranyl)methoxy)(phenoxy)phosphorylamino)propanoate] |  | 47 |  | pEC50 [2]: 6.74 |
| N#C[C@@]1(c2ccc3c(N)ncnn23)O[C@H](CO)[C@@H](O)[C@H]1O [Compound 1, (2R, 3R, 4S, 5R)-2-(4-aminopyrrolo[1,2-f][1,2,4]triazin-7-yl)-3,4-dihydroxy (hydroxymethyl)tetrahydrofuran-2-carbonitrile] |  | > 100 | 6.32 | pIC50 [4]: 5.77; CC50 at 7 days [5]: > 30 µM |
| CCOC(=O)[C@H](C)NP(=O)(N[C@@H](C)C(=O)OCC)OC[C@H]1O[C@@](C#N)(c2ccc3c(N)ncnn23)[C@H](O)[C@@H]1O [Compound 12, (2S,2'S)-diethyl 2,2′-((((2R,3S,4R,5R)-5-(4-aminopyrrolo[1,2-f][1,2,4]triazinyl)-5-cyano-3,4-dihydroxytetrahydrofuranyl)methoxy)phosphoryl)bis(azanediyl)dipropanoate] |  | > 100 | 5.19 |  |
